# In patent publication US10167262B2, “Herbicidal substituted 3-arylpyrazoles” (FMC CORPORATION, priority 2014, dated 2019):
# What was measured:
# Test in all cases: Test E pre-/postemergence greenhouse test, plant response rating 0-100
# Format in all cases: in vivo
# [1] = tested on: Brazilian crabgrass (Digitaria horizontalis); settings: Postemergence, scale 0 to 100
# Text: (§1) Seeds of plant species selected from corn (Zea mays), soybean (Glycine max), velvetleaf (Abutilon theophrasti), lambsquarters (Chenopodium album), wild poinsettia (Euphorbia heterophylla), palmer pigweed (Amaranthus palmeri), waterhemp (common waterhemp, Amaranthus rudis), surinam grass (Brachiaria decumbens), large (Lg) crabgrass (Digitaria sanguinalis), Brazilian crabgrass (Digitaria horizontalis), fall panicum (Panicum dichotomiflorum), giant foxtail (Setaria faberii), green foxtail (Setaria viridis), goosegrass (Eleusine indica), johnsongrass (Sorghum halepense), ragweed (common ragweed, Ambrosia elatior), barnyardgrass (Echinochloa crus-galli), sandbur (southern sandbur, Cenchrus echinatus), arrowleaf sida (Sida rhombifolia), Italian ryegrass (Lolium multiflorum), dayflower (Virginia (VA) dayflower, Commelina virginica), field bindweed (Convolvulus arvensis), morningglory (Ipomoea coccinea), nightshade (eastern black nightshade, Solanum ptycanthum), kochia (Kochia scoparia), yellow nutsedge (Cyperus esculentus), smartweed (ladysthumb smartweed, Polygonum persicaria), cocklebur (common cocklebur, Xanthium strumarium), and hairy beggarticks (Bidens pilosa), were planted into a silt loam soil and treated preemergence with test chemicals formulated in a non-phytotoxic solvent mixture which included a surfactant.
# (§2) At the same time, plants from these crop and weed species and also waterhemp_RES1, (ALS & Triazine resistant common waterhemp, Amaranthus rudis), and waterhemp_RES2, (ALS & HPPD resistant common waterhemp, Amaranthus rudis) were planted in pots containing Redi-Earth® planting medium (Scotts Company, 14111 Scottslawn Road, Marysville, Ohio 43041) comprising spaghnum peat moss, vermiculite, wetting agent and starter nutrients were treated with postemergence applications of test chemicals formulated in the same manner. Plants ranged in height from 2 to 18 cm for postemergence treatments (1- to 4-leaf stage).
# (§3) Treated plants and controls were maintained in a greenhouse for 14 to 21 days, after which time all species were compared to controls and visually evaluated. Plant response ratings, summarized in Table E, are based on a scale of 0 to 100 where 0 is no effect and 100 is complete control. A dash (-) response means no test result.
# [2] = tested on: Italian ryegrass (Lolium multiflorum); settings: Postemergence, scale 0 to 100
# Text: as §1, §2, §3
# [3] = tested on: arrowleaf sida (Sida rhombifolia); settings: Postemergence
# Text: as §1, §2, §3
# [4] = tested on: barnyardgrass (Echinochloa crus-galli); settings: Postemergence, scale 0 to 100
# Text: as §1, §2, §3
# corn (Zea mays) = settings: Postemergence, scale 0 to 100
# Text: as §1, §2, §3
# [5] = tested on: dayflower (Virginia (VA) dayflower, Commelina virginica); settings: Postemergence, scale 0 to 100
# Text: as §1, §2, §3
# [6] = tested on: fall panicum (Panicum dichotomiflorum); settings: Postemergence, scale 0 to 100
# Text: as §1, §2, §3
# [7] = tested on: hairy beggarticks (Bidens pilosa); settings: Postemergence, scale 0 to 100
# Text: as §1, §2, §3
# [8] = tested on: palmer pigweed (Amaranthus palmeri); settings: Postemergence, scale 0 to 100
# Text: as §1, §2, §3
# [9] = tested on: sandbur (southern sandbur, Cenchrus echinatus); settings: Postemergence, scale 0 to 100
# Text: as §1, §2, §3
# [10] = tested on: wild poinsettia (Euphorbia heterophylla); settings: for Plant response rating, Poinsettia, Wild: Postemergence, scale 0 to 100
# Text: as §1, §2, §3
# [11] = Euphorbia heterophylla, post-emergence, read-out: Plant response rating, Poinsettia, Wild
smiles,measurement,setting,value
Cn1cc(C(=O)c2cccs2)c(-c2cc(Cl)cc(Cl)c2)n1 [Compound 17],"Plant response rating, Crabgrass, Brazil",[1]; 31 g ai/ha,0
same,"Plant response rating, Crabgrass, Brazil",[1]; 62 g ai/ha,0
same,"Plant response rating, Crabgrass, Brazil",[1]; 125 g ai/ha,0
same,"Plant response rating, Crabgrass, Brazil",[1]; 250 g ai/ha,0
same,"Plant response rating, Crabgrass, Brazil",[1]; 500 g ai/ha,15
same,"Plant response rating, Ryegrass, Italian",[2]; 31 g ai/ha,0
same,"Plant response rating, Ryegrass, Italian",[2]; 62 g ai/ha,0
same,"Plant response rating, Ryegrass, Italian",[2]; 125 g ai/ha,0
same,"Plant response rating, Ryegrass, Italian",[2]; 250 g ai/ha,0
same,"Plant response rating, Ryegrass, Italian",[2]; 500 g ai/ha,0
same,"Plant response rating, Arrowleaf Sida","[3]; 31 g ai/ha, scale 0 to 100",60
same,"Plant response rating, Arrowleaf Sida","[3]; 62 g ai/ha, scale 0 to 100",70
same,"Plant response rating, Arrowleaf Sida","[3]; 125 g ai/ha, scale 0 to 100",75
same,"Plant response rating, Arrowleaf Sida","[3]; 250 g ai/ha, scale 0 to 100",80
same,"Plant response rating, Arrowleaf Sida","[3]; 500 g ai/ha, scale 0 to 100 (0 no effect, 100 complete control)",85
same,"Plant response rating, Barnyardgrass",[4]; 31 g ai/ha,0
same,"Plant response rating, Barnyardgrass",[4]; 62 g ai/ha,0
same,"Plant response rating, Barnyardgrass",[4]; 125 g ai/ha,0
same,"Plant response rating, Barnyardgrass",[4]; 250 g ai/ha,0
same,"Plant response rating, Barnyardgrass",[4]; 500 g ai/ha,20
same,"Plant response rating, Corn",corn (Zea mays); 31 g ai/ha,0
same,"Plant response rating, Corn",corn (Zea mays); 62 g ai/ha,0
same,"Plant response rating, Corn",corn (Zea mays); 125 g ai/ha,0
same,"Plant response rating, Corn",corn (Zea mays); 250 g ai/ha,0
same,"Plant response rating, Corn",corn (Zea mays); 500 g ai/ha,0
same,"Plant response rating, Dayflower, VA",[5]; 31 g ai/ha,0
same,"Plant response rating, Dayflower, VA",[5]; 62 g ai/ha,0
same,"Plant response rating, Dayflower, VA",[5]; 125 g ai/ha,0
same,"Plant response rating, Dayflower, VA",[5]; 250 g ai/ha,0
same,"Plant response rating, Dayflower, VA",[5]; 500 g ai/ha,0
same,"Plant response rating, Panicum, Fall",[6]; 31 g ai/ha,0
same,"Plant response rating, Panicum, Fall",[6]; 62 g ai/ha,0
same,"Plant response rating, Panicum, Fall",[6]; 125 g ai/ha,0
same,"Plant response rating, Panicum, Fall",[6]; 250 g ai/ha,0
same,"Plant response rating, Panicum, Fall",[6]; 500 g ai/ha,0
same,"Plant response rating, Beggarticks",[7]; 31 g ai/ha,5
same,"Plant response rating, Beggarticks",[7]; 62 g ai/ha,25
same,"Plant response rating, Beggarticks",[7]; 125 g ai/ha,35
same,"Plant response rating, Beggarticks",[7]; 250 g ai/ha,40
same,"Plant response rating, Beggarticks",[7]; 500 g ai/ha,60
same,"Plant response rating, Pigweed, Palmer",[8]; 31 g ai/ha,60
same,"Plant response rating, Pigweed, Palmer",[8]; 62 g ai/ha,70
same,"Plant response rating, Pigweed, Palmer",[8]; 125 g ai/ha,80
same,"Plant response rating, Pigweed, Palmer",[8]; 250 g ai/ha,85
same,"Plant response rating, Pigweed, Palmer",[8]; 500 g ai/ha,95
same,"Plant response rating, Sandbur",[9]; 31 g ai/ha,0
same,"Plant response rating, Sandbur",[9]; 62 g ai/ha,0
same,"Plant response rating, Sandbur",[9]; 125 g ai/ha,0
same,"Plant response rating, Sandbur",[9]; 250 g ai/ha,0
same,"Plant response rating, Sandbur",[9]; 500 g ai/ha,10
same,"Plant response rating, Poinsettia, Wild",[10]; 31 g ai/ha,0
same,"Plant response rating, Poinsettia, Wild",[10]; 62 g ai/ha,0
same,"Plant response rating, Poinsettia, Wild",[10]; 125 g ai/ha,0
same,"Plant response rating, Poinsettia, Wild",[10]; 250 g ai/ha,20
same,"Plant response rating, Poinsettia, Wild",[10]; 500 g ai/ha,30
"CCCn1cc(C(=O)c2ccccc2)c(-c2cc(Cl)cc(Cl)c2)n1 [Compound 61, [3-(3,5-dichlorophenyl)-1-propyl-1H-pyrazol-4-yl]phenylmethanone]",pest or weed control at 31 g/ha,"[1]; Digitaria horizontalis, post-emergence, 31 g ai/ha, read-out: Plant response rating, Crabgrass, Brazil",0%
same,pest or weed control at 62 g/ha,"[1]; Digitaria horizontalis, post-emergence, 62 g ai/ha, read-out: Plant response rating, Crabgrass, Brazil",0%
same,pest or weed control at 125 g/ha,"[1]; Digitaria horizontalis, post-emergence, 125 g ai/ha, read-out: Plant response rating, Crabgrass, Brazil",0%
same,pest or weed control at 250 g/ha,"[1]; Digitaria horizontalis, post-emergence, 250 g ai/ha, read-out: Plant response rating, Crabgrass, Brazil",0%
same,pest or weed control at 500 g/ha,"[1]; Digitaria horizontalis, post-emergence, 500 g ai/ha, read-out: Plant response rating, Crabgrass, Brazil",0%
same,pest or weed control at 31 g/ha,"[2]; Lolium multiflorum, post-emergence, 31 g ai/ha",0%
same,pest or weed control at 62 g/ha,"[2]; Lolium multiflorum, post-emergence, 62 g ai/ha",0%
same,pest or weed control at 125 g/ha,"[2]; Lolium multiflorum, post-emergence, 125 g ai/ha",0%
same,pest or weed control at 250 g/ha,"[2]; Lolium multiflorum, post-emergence, 250 g ai/ha",0%
same,pest or weed control at 500 g/ha,"[2]; Lolium multiflorum, post-emergence, 500 g ai/ha",0%
same,pest or weed control at 31 g/ha,"[3]; Sida rhombifolia, post-emergence, 31 g ai/ha, scale 0 to 100",30%
same,pest or weed control at 62 g/ha,"[3]; Sida rhombifolia, post-emergence, 62 g ai/ha, scale 0 to 100",40%
same,pest or weed control at 125 g/ha,"[3]; Sida rhombifolia, post-emergence, 125 g ai/ha, scale 0 to 100",40%
same,pest or weed control at 250 g/ha,"[3]; Sida rhombifolia, post-emergence, 250 g ai/ha, scale 0 to 100",60%
same,pest or weed control at 500 g/ha,"[3]; Sida rhombifolia, post-emergence, 500 g ai/ha, scale 0 to 100 (0 no effect, 100 complete control)",70%
same,pest or weed control at 31 g/ha,"[4]; Echinochloa crus-galli, post-emergence, 31 g ai/ha",0%
same,pest or weed control at 62 g/ha,"[4]; Echinochloa crus-galli, post-emergence, 62 g ai/ha",0%
same,pest or weed control at 125 g/ha,"[4]; Echinochloa crus-galli, post-emergence, 125 g ai/ha",0%
same,pest or weed control at 250 g/ha,"[4]; Echinochloa crus-galli, post-emergence, 250 g ai/ha",10%
same,pest or weed control at 500 g/ha,"[4]; Echinochloa crus-galli, post-emergence, 500 g ai/ha",20%
same,"Corn plant response rating (crop injury, 0 = no effect, 100 = complete kill) at 31 g/ha","corn (Zea mays); Zea mays, post-emergence, 31 g ai/ha",0%
same,"Corn plant response rating (crop injury, 0 = no effect, 100 = complete kill) at 62 g/ha","corn (Zea mays); Zea mays, post-emergence, 62 g ai/ha",0%
same,"Corn plant response rating (crop injury, 0 = no effect, 100 = complete kill) at 125 g/ha","corn (Zea mays); Zea mays, post-emergence, 125 g ai/ha",0%
same,"Corn plant response rating (crop injury, 0 = no effect, 100 = complete kill) at 250 g/ha","corn (Zea mays); Zea mays, post-emergence, 250 g ai/ha",0%
same,"Corn plant response rating (crop injury, 0 = no effect, 100 = complete kill) at 500 g/ha","corn (Zea mays); Zea mays, post-emergence, 500 g ai/ha",0%
same,pest or weed control at 31 g/ha,"[5]; Commelina virginica, post-emergence, 31 g ai/ha",0%
same,pest or weed control at 62 g/ha,"[5]; Commelina virginica, post-emergence, 62 g ai/ha",0%
same,pest or weed control at 125 g/ha,"[5]; Commelina virginica, post-emergence, 125 g ai/ha",0%
same,pest or weed control at 250 g/ha,"[5]; Commelina virginica, post-emergence, 250 g ai/ha",0%
same,pest or weed control at 500 g/ha,"[5]; Commelina virginica, post-emergence, 500 g ai/ha",0%
same,pest or weed control at 31 g/ha,"[6]; Panicum dichotomiflorum, post-emergence, 31 g ai/ha",0%
same,pest or weed control at 62 g/ha,"[6]; Panicum dichotomiflorum, post-emergence, 62 g ai/ha",0%
same,pest or weed control at 125 g/ha,"[6]; Panicum dichotomiflorum, post-emergence, 125 g ai/ha",0%
same,pest or weed control at 250 g/ha,"[6]; Panicum dichotomiflorum, post-emergence, 250 g ai/ha",0%
same,pest or weed control at 500 g/ha,"[6]; Panicum dichotomiflorum, post-emergence, 500 g ai/ha",0%
same,pest or weed control at 31 g/ha,"[8]; Amaranthus palmeri, post-emergence, 31 g ai/ha",50%
same,pest or weed control at 62 g/ha,"[8]; Amaranthus palmeri, post-emergence, 62 g ai/ha",60%
same,pest or weed control at 125 g/ha,"[8]; Amaranthus palmeri, post-emergence, 125 g ai/ha",60%
same,pest or weed control at 250 g/ha,"[8]; Amaranthus palmeri, post-emergence, 250 g ai/ha",80%
same,pest or weed control at 500 g/ha,"[8]; Amaranthus palmeri, post-emergence, 500 g ai/ha",95%
same,pest or weed control at 31 g/ha,"[9]; Cenchrus echinatus, post-emergence, 31 g ai/ha",0%
same,pest or weed control at 62 g/ha,"[9]; Cenchrus echinatus, post-emergence, 62 g ai/ha",0%
same,pest or weed control at 125 g/ha,"[9]; Cenchrus echinatus, post-emergence, 125 g ai/ha",0%
same,pest or weed control at 250 g/ha,"[9]; Cenchrus echinatus, post-emergence, 250 g ai/ha",0%
same,pest or weed control at 500 g/ha,"[9]; Cenchrus echinatus, post-emergence, 500 g ai/ha",0%
same,pest or weed control at 31 g/ha,[10]; [11],0%
same,pest or weed control at 62 g/ha,[10]; [11],0%
same,pest or weed control at 125 g/ha,[10]; [11],0%
same,pest or weed control at 250 g/ha,[10]; [11],10%
same,pest or weed control at 500 g/ha,[10]; [11],30%
